Results as given in patent publication US12357695B2, “Peptides and nanoparticles for intracellular delivery of molecules” (AADIGEN, LLC, priority 2019, dated 2025).
“Also recorded” adds a separate entry of the source. Square brackets hold non-standard residues; d marks the D form. Primed or numbered codes have the meaning given here. PEG4′ = four-unit PEG spacer; PEG2′ = two-unit PEG spacer; PEG7′ = (PEG)7 moiety; Ava = NCCCCC(=O)O; βAla = NCCC(=O)O

Experiments:
mice = assay: In vivo delivery of Luciferase mRNA by targeted ADGN-peptide variants, intravenous (Example 9); conditions: 5 μg Luc mRNA
mice or rat models = assay: Summary of cargo delivery to targeted organ (Table 1); type: in vivo; conditions: cargoes and route (IV, IM, SQ, NB) per peptide as listed in Table 1
From the text: Table 1 lists a summary of cell-penetrating peptides that have been proven successful in delivering various cargo molecules to on or more targeted organ (e.g., by intravenous (IV), intramuscular (IM), or subcutaneous (SQ) administration, or intratraccheal instillation or nebulization (NB)) in mice or rat models.

293T cells = assay: Cellular delivery of Luciferase mRNA, luciferase expression at 72 hrs; type: cell-based; conditions: 0.25 μg Luc mRNA; for reduction of efficiency / luciferase expression by modification or linker vs unmodified ADGN peptide: absence of serum or heparan sulfate; for luciferase expression: absence of serum or heparan sulfate treatment; for reduction of efficiency / luciferase expression after serum treatment: complexes incubated 3 hrs in 25% serum prior transfection
Procedure: FIGS. 1A-1C show luciferase expression in 293T cells treated with ADGN-peptide/mRNA complexes. 293T cells cultured in 48 well plates were transfected with ADGN-peptide nanoparticles. ADGN-100, ADGN-106, ADGN-100RI, ADGN-106RI, ADGN-100 Stearyl, ADGN-Hydro1, ADGN-Hydro2, ADGN-Hydro3, ADGN-Hydro4, ADGN-Hydro5, ADGN-Hydro6 and ADGN-peptide/ADGN-100PEG 10% nanoparticles containing 0.25 μg mRNA were formed in sterile water, diluted in sterile water containing 5% Sucrose and filtered with 0.45 μm PES filters. ADGN/mRNA complexes were incubated for 3 hrs in the presence of either 25% serum or heparan sulfate prior transfection. Luciferase expression was monitored 72 hours post transfection and results were reported as RLU (luminescence):mg of protein.
Complex formation with mRNA. The following protocols were used for the transfection of 2-5 106 Cells or Cells at confluency of about 70-80% cultured in 24 well plates. ADGN peptide/mRNA particles were prepared at a 20:1 molar ratio of ADGN-Peptide/mRNA. using (0.25 μg) mRNA. Luc mRNA (0.25 μg) was diluted in 20 μl of sterile water (GIBCO) at room temperature. 5 μl Final Peptide Solution was added to obtain a total volume of 20 μl. The volume was adjusted to 50 μl with sterile water and was mixed gently with vortex 1 min low speed and incubated 30 min at room temperature. Then the volume was made up to 100 μl by adding sterile water containing 5% sucrose, and the solution was mixed gently with vortex 1 min low speed and incubate 5 min at 37° C. and then was proceeded to cell transfection.
Transfection protocol. Protocol is reported for 24 well plate format. Cells were cultured in Dulbecco's Modified Eagle's Medium (DMEM), supplemented with 2 mM glutamine, 1% antibiotics (streptomycin 10,000 μg/mL, penicillin, 10,000 IU/mL) and 10% (w/v) foetal calf serum (FCS), at 37° C. in a humidified atmosphere containing 5% CO2. 24 well plates seeded with 150,000 cells the day prior to transfection were grown to 50-60% confluence and set up to be at about 70% confluences at the time of transfection. Before transfection, cells were washed twice with DMEM. Cells were then overlaid with 0.1 ml of ADGN-peptide/cargo complex solution containing 0.25 μg mRNA, 0.15 μg plasmid DNA or 10-25 nM siRNA, mixed gently, and incubated for 10 min at 37° C. 0.2 mL of fresh DMEM, were added and cells were incubated for 20 min at 37° C. 1 mL of complete DMEM containing 15% FCS were then added in order to reach a final FCS concentration of 10%, without removing the overlay of ADGN-peptide/cargo complexes. Cells were returned to the incubator (37° C., 5% CO2) and 72 hrs post transfection.
ADGN-peptides were evaluated for cellular delivery of Luciferase mRNA in 293T cells. A single dose of mRNA of 0.25 μg was evaluated. Luc mRNA (0.25 μg) in sterile water (GIBCO) were mixed with ADGN-100, ADGN-100RI, ADGN-106, ADGN-106RI, ADGN-100 Stearyl, ADGN-Hydro1, ADGN-Hydro2, ADGN-Hydro5 and ADGN-Hydro6. ADGN-peptide/mRNA complexes were filtered with 0.45 μm PES filter. In order to evaluate the stability of the ADGN/mRNA complexes in high serum and cell culture conditions, the complexes were incubated for 3 hrs in the presence of either 25% serum or heparan sulfate prior transfection, then 293T cells were transfected and Luciferase expression was monitored at 72 hrs.
ADGN-106 peptides containing YIGSR targeting sequence were evaluated for cellular delivery of Luciferase mRNA in 293T cells. A single dose of mRNA of 0.25 μg was evaluated. Luc mRNA (0.25 μg) in sterile water (GIBCO) were mixed with ADGN-106 and ADGN-106Hydro variant. ADGN-peptide/mRNA complexes were filtered with 0.45 μm PES filter. The ADGN-106/mRNA complexes were incubated for 3 hrs in the presence of 25% serum prior transfection, then 293T cells were transfected and Luciferase expression was monitored at 72 hrs.

Row | Substance | target delivery and expression of mRNA (tissues) (mice) | Targeted Organ (mice or rat models) | other results
1 | AC-ALWRA(GalNac)LWRLWRSLWRLLWKA-NH2 [ADGN-106GALNAC] | mRNA accumulation in the liver | Liver | –
2 | Ac-ASSLNIA-Ava-KWWERWWREWPRKRR-NH2 [ADGN-103C] | negligible luciferase expression | – | –
3 | Ac-CARPAR-WRSAGWRWRLWRVRSWSR-NH2 (Ac-CARPARWRSAGWRWRLWRVRSWSR-NH2) [ADGN-101] | heart and muscles | Heart/Lung | increase of luciferase expression / efficiency in the lung relative to parent peptide (mice): 6 fold
4 | Ac-CKRAV-RWWLRWASRWFSRWAWWR-NH2 [ADGN-109b] | the lung, heart and muscles | – | –
5 | Ac-CKTRRVP-WRALWRLWRSLWRLLWKA-NH2 (Ac-CKTRRVPWRALWRLWRSLWRLLWKA-NH2) [ADGN-106TD] | heart and muscles | Muscle/Heart | –
6 | Ac-KSYDTYAAETR-RWASRWFSRWAWWR-NH2 [ADGN-109D] | the brain and lymphnode and at lower level in liver and kidney | – | –
7 | Ac-KSYDTY[Ava]ALRWLRWASRWFSRWAWR-NH2 [ADGN-109] | the brain and lymphnode and at lower level in liver and kidney | – | –
8 | Ac-KWRSA(GalNac)LWRWRLWRVRSWSR-NH2 (Ac-KWRSA[GalNAc]LWRWRLWRVRSWSR-NH2; not fully specified; printed as Ac-KWRSA(GalNac)LWRWRLWRVRSWSR-NH2) [ADGN-100GALNAC] | mRNA accumulation in the liver | Liver | –
9 | Ac-LSSRLDA-Ava-KWWERWWREWPRKRR [ADGN-104] | heart and muscles and at lower level in the liver | – | –
10 | Ac-SYTSSTM-Ava-KWWERWWREWPRKRR [ADGN-105] | the brain and at lower level in liver, lung and lymphnode | – | –
11 | Ac-SYTSSTM-Ava-βALWRALWRLWRSLWRLLWKA-NH2 (Ac-SYTSSTM[Ava][βAla]LWRALWRLWRSLWRLLWKA-NH2; SMILES CSCC[C@H](NC(=O)[C@@H](NC(=O)[C@H](CO)NC(=O)[C@H](CO)NC(=O)[C@@H](NC(=O)[C@H](Cc1ccc(O)cc1)NC(=O)[C@H](CO)NC(C)=O)[C@@H](C)O)[C@@H](C)O)C(=O)NCCCCC(=O)NCCC(=O)N[C@@H](CC(C)C)C(=O)N[C@@H](Cc1c[nH]c2ccccc12)C(=O)N[C@@H](CCCNC(=N)N)C(=O)N[C@@H](C)C(=O)N[C@@H](CC(C)C)C(=O)N[C@@H](Cc1c[nH]c2ccccc12)C(=O)N[C@@H](CCCNC(=N)N)C(=O)N[C@@H](CC(C)C)C(=O)N[C@@H](Cc1c[nH]c2ccccc12)C(=O)N[C@@H](CCCNC(=N)N)C(=O)N[C@@H](CO)C(=O)N[C@@H](CC(C)C)C(=O)N[C@@H](Cc1c[nH]c2ccccc12)C(=O)N[C@@H](CCCNC(=N)N)C(=O)N[C@@H](CC(C)C)C(=O)N[C@@H](CC(C)C)C(=O)N[C@@H](Cc1c[nH]c2ccccc12)C(=O)N[C@@H](CCCCN)C(=O)N[C@@H](C)C(N)=O) [ADGN-106TB] | the brain | Brain/Liver | –
12 | Ac-TGNYKALHPDHNG-WRSALRWRLWRWSR-NH2 [ADGN-102] | the brain | Brain/Lung | increase of luciferase expression / efficiency in the lung relative to parent peptide (mice): 3 fold
13 | Ac-THRPPNWSPVWP-RALWRLWRSLWRLRWKA-NH2 (Ac-THRPPNWSPVWPRALWRLWRSLWRLRWKA-NH2) [ADGN-106TC] | the brain | Brain | –
14 | Ac-YIGSR-(G)2-ALWRALWRLWRSLWRLLWKA-NH2 [ADGN-106-Hydro-7] | – | – | reduction of efficiency / luciferase expression by modification or linker vs unmodified ADGN peptide (293T cells): 28%
15 | Ac-YIGSR-(G)4-ALWRALWRLWRSLWRLLWKA-NH2 (Ac-YIGSRGGGGALWRALWRLWRSLWRLLWKA-NH2) [ADGN-106-Hydro-1] | – | – | luciferase expression (293T cells): high level of luciferase expression; reduction of efficiency / luciferase expression after serum treatment (293T cells): 40%
16 | Ac-YIGSR-(PEG)2-βALWRALWRLWRSLWRLLWKA-NH2 (Ac-YIGSR[PEG2′][βAla]LWRALWRLWRSLWRLLWKA-NH2) [ADGN-106-HYPEG2] | – | Tumor/Lung | luciferase expression (293T cells): high level of luciferase expression; reduction of efficiency / luciferase expression after serum treatment (293T cells): 21%
17 | Ac-YIGSR-(PEG)4-βALWRALWRLWRSLWRLLWKA-NH2 (Ac-YIGSR[PEG4′][βAla]LWRALWRLWRSLWRLLWKA-NH2) [ADGN-106-HYPEG4] | – | Tumor/Lung | reduction of efficiency / luciferase expression by modification or linker vs unmodified ADGN peptide (293T cells): 35%
18 | Ac-YIGSR-(PEG)7-βALWRALWRLWRSLWRLLWKA-NH2 (Ac-YIGSR[PEG7′][βAla]LWRALWRLWRSLWRLLWKA-NH2) [ADGN-106-HYPEG7] | – | – | reduction of efficiency / luciferase expression by modification or linker vs unmodified ADGN peptide (293T cells): 72%
19 | Ac-YIGSR-Ahx-ALWRALWRLWRSLWRLLWKA-NH2 [ADGN-106-Hydro-8] | – | – | luciferase expression (293T cells): high level of luciferase expression; reduction of efficiency / luciferase expression after serum treatment (293T cells): 17%; increase of mRNA expression / efficiency in the liver relative to ADGN-106 or ADGN-100 (mice; liver): 2 folds; increase of efficiency in the muscle relative to ADGN-106 (mice; muscle): 5 folds
20 | Ac-YIGSR-Ahx-KWRSALWRWRLWRVRSWSR-NH2 [ADGN-100-Hydro-8] | – | Tumor/Lung | increase of efficiency in the kidney relative to ADGN-100 (mice; kidney): 4 folds; increase of luciferase expression / efficiency in the lung relative to parent peptide (mice): 22 fold
21 | Ac-YIGSR-Aun(CH2)6-ALWRALWRLWRSLWRLLWKA-NH2 [ADGN-106-Hydro-5] | – | Tumor/Lung/; also recorded: Pancreas/Liver | luciferase expression (293T cells): high level of luciferase expression; reduction of efficiency / luciferase expression after serum treatment (293T cells): 15%
22 | Ac-YIGSR-Ava(CH2)2-ALWRALWRLWRSLWRLLWKA-NH2 [ADGN-106-Hydro-3] | – | Tumor/Muscle | luciferase expression (293T cells): high level of luciferase expression; reduction of efficiency / luciferase expression after serum treatment (293T cells): 32%
23 | Ac-YIGSR-Balwralwrlwrslwrllwka-NH2 (Ac-YIGSR[βAla]LWRALWRLWRSLWRLLWKA-NH2) [ADGN-106-Hydro] | – | – | luciferase expression (293T cells): high level of luciferase expression; reduction of efficiency / luciferase expression after serum treatment (293T cells): 80%
